The record followed here is the OligoGym collection.

“And” between values parts separate entries of the source, which are not always exact repeats. Equal values may be shown once. HELM strings list units from the 5' end as sugar, base in round brackets, then linkage (d deoxyribose, r ribose, m 2'-O-methyl, p phosphodiester). Strings are as the collection lists them, not checked against the first reports. ss, as = sense and antisense strand; [lna] = locked nucleic acid (LNA); [una] = unlocked nucleic acid; [hna] = hexitol nucleic acid; [s4r] = 4'-thioribose; [fl2r] = 2'-fluoro
Further: test system not given here.

For this series the following is noted: siRNA.
In turn, “RNA1{r(U)p.r(C)p.r(C)p.r(U)p.r(C)p.r(G)p.r(U)p.m(C)p.r(G)p.r(U)p.r(C)p.m(U)p.r(G)p.r(U)p.r(U)p.r(C)p.m(U)p.r(A)p.r(A)p.r(T)p.r(T)}|RNA2{r(U)p.m(U)p.r(A)p.r(G)p.r(A)p.r(A)p.m(C)p.r(A)p.r(G)p.r(A)p.r(C)p.r(G)p.r(A)p.r(C)p.r(G)p.r(A)p.r(G)p.r(G)p.r(A)p.r(T)p.r(T)}$$$RNA1{StrandType:ss}|RNA2{StrandType:as}$” displayed a target mRNA knockdown of 82%.
As for “RNA1{r(G)p.r(C)p.r(U)p.r(U)p.r(C)p.r(G)p.r(G)p.r(A)p.r(A)p.r(A)p.r(C)p.r(U)p.r(G)p.r(G)p.r(A)p.[fl2r](C)p.r(A)p.r(U)p.r(C)p.r(T)p.r(T)}|RNA2{r(G)p.r(A)p.[fl2r](U)p.r(G)p.r(U)p.r(C)p.[fl2r](C)p.r(A)p.r(G)p.r(U)p.r(U)p.r(U)p.r(C)p.r(C)p.r(G)p.r(A)p.r(A)p.r(G)p.r(C)p.r(T)p.r(T)}$$$RNA1{StrandType:ss}|RNA2{StrandType:as}$”, the figure is 90%; as for “RNA1{r(G)p.m(C)p.r(A)p.r(G)p.r(C)p.r(A)p.r(C)p.r(G)p.r(A)p.r(C)p.r(U)p.r(U)p.r(C)p.r(U)p.r(U)p.r(C)p.r(A)p.r(A)p.r(G)p.r(U)p.r(U)}|RNA2{r(U)p.[fl2r](U)p.r(C)p.r(G)p.r(U)p.r(C)p.r(G)p.r(U)p.r(G)p.r(C)p.r(U)p.r(G)p.r(A)p.r(A)p.r(G)p.r(A)p.r(A)p.r(G)p.r(U)p.r(U)p.r(C)}$$$RNA1{StrandType:ss}|RNA2{StrandType:as}$”, 77.2%; as for “RNA1{r(A)p.r(G)p.r(U)p.m(U)p.r(A)p.r(A)p.r(C)p.r(C)p.r(C)p.r(G)p.r(G)p.r(G)p.r(A)p.r(C)p.r(U)p.m(U)p.r(G)p.r(G)p.r(A)p.r(T)p.r(T)}|RNA2{r(U)p.r(C)p.m(C)p.r(A)p.r(A)p.r(G)p.r(U)p.r(C)p.r(C)p.r(C)p.r(G)p.r(G)p.r(G)p.r(U)p.m(U)p.r(A)p.r(A)p.r(C)p.r(U)p.r(T)p.r(T)}$$$RNA1{StrandType:ss}|RNA2{StrandType:as}$”, 90%.
Substance “RNA1{r(U)p.m(U)p.r(A)p.r(A)p.r(G)p.r(G)p.r(A)p.r(G)p.r(A)p.r(A)p.r(G)p.r(C)p.r(U)p.r(G)p.r(A)p.r(C)p.r(G)p.r(G)p.r(C)p.r(T)p.r(T)}|RNA2{r(G)p.r(C)p.r(C)p.r(G)p.r(U)p.m(C)p.r(A)p.r(G)p.r(C)p.r(U)p.r(U)p.r(C)p.r(U)p.r(C)p.r(C)p.r(U)p.m(U)p.r(A)p.r(A)p.r(T)p.r(T)}$$$RNA1{StrandType:ss}|RNA2{StrandType:as}$” yielded a target mRNA knockdown of 83%.
“RNA1{r(A)p.r(A)p.r(C)p.r(C)p.r(C)p.r(A)p.r(C)p.r(C)p.r(A)p.r(C)p.r(A)p.r(G)p.r(C)p.[fl2r](U)p.[fl2r](A)p.r(G)p.r(A)p.r(A)p.r(C)p.r(U)p.r(U)}|RNA2{r(A)p.r(A)p.r(G)p.r(U)p.r(U)p.r(C)p.[fl2r](U)p.[fl2r](A)p.r(G)p.r(C)p.r(U)p.r(G)p.r(U)p.r(G)p.r(G)p.r(U)p.r(G)p.r(G)p.r(G)p.r(U)p.r(U)}$$$RNA1{StrandType:ss}|RNA2{StrandType:as}$”: the target mRNA knockdown worked out at 57%.
As for “RNA1{[hna](G)p.[hna](A)p.[hna](C)p.r(G)p.r(U)p.r(A)p.r(A)p.r(A)p.r(C)p.r(G)p.r(G)p.r(C)p.r(C)p.r(A)p.r(C)p.r(A)p.r(A)p.[hna](G)p.[hna](U)p.[hna](U)p.d(T)}|RNA2{r(A)p.[hna](C)p.r(U)p.r(U)p.r(G)p.r(U)p.r(G)p.r(G)p.[hna](C)p.r(C)p.r(G)p.r(U)p.r(U)p.r(U)p.r(A)p.r(C)p.r(G)p.[hna](U)p.[hna](C)p.[hna](G)p.d(T)}$$$RNA1{StrandType:ss}|RNA2{StrandType:as}$”, the figure is 35.8%; as for “RNA1{r(G)p.r(A)p.r(C)p.r(G)p.[hna](U)p.r(A)p.r(A)p.[hna](A)p.r(C)p.r(G)p.[hna](G)p.r(C)p.r(C)p.[hna](A)p.r(C)p.r(A)p.r(A)p.r(G)p.[hna](U)p.[hna](U)p.d(T)}|RNA2{r(A)p.m(C)p.r(U)p.r(U)p.r(G)p.r(U)p.r(G)p.r(G)p.r(C)p.r(C)p.r(G)p.r(U)p.r(U)p.r(U)p.r(A)p.r(C)p.r(G)p.r(U)p.r(C)p.r(G)p.r(C)}$$$RNA1{StrandType:ss}|RNA2{StrandType:as}$”, 44.7%; as for “RNA1{r(A)p.r(G)p.r(A)p.r(C)p.[fl2r](U)p.r(A)p.r(A)p.r(G)p.r(C)p.r(C)p.[fl2r](C)p.r(A)p.r(A)p.r(A)p.r(A)p.r(G)p.r(G)p.r(G)p.r(C)p.r(T)p.r(T)}|RNA2{r(G)p.r(C)p.r(C)p.r(C)p.r(U)p.r(U)p.r(U)p.[fl2r](U)p.r(G)p.r(G)p.r(G)p.r(C)p.r(U)p.[fl2r](U)p.r(A)p.r(G)p.r(U)p.r(C)p.r(U)p.r(T)p.r(T)}$$$RNA1{StrandType:ss}|RNA2{StrandType:as}$”, 45%.
To “RNA1{r(A)p.m(A)p.r(G)p.m(G)p.r(A)p.m(G)p.r(A)p.m(U)p.r(C)p.m(A)p.r(A)p.m(C)p.r(A)p.m(U)p.r(U)p.m(U)p.r(U)p.m(C)p.r(A)p.r(T)p.r(T)}|RNA2{r(U)p.m(G)p.r(A)p.m(A)p.r(A)p.m(A)p.r(U)p.m(G)p.r(U)p.m(U)p.r(G)p.m(A)p.r(U)p.m(C)p.r(U)p.m(C)p.r(C)p.m(U)p.r(U)p.r(T)p.r(T)}$$$RNA1{StrandType:ss}|RNA2{StrandType:as}$” belongs 61%.
As for “RNA1{[s4r](A)p.[s4r](A)p.[s4r](A)p.[s4r](C)p.r(A)p.r(U)p.r(G)p.r(C)p.r(A)p.r(G)p.r(A)p.r(A)p.r(A)p.r(A)p.r(U)p.[s4r](G)p.[s4r](C)p.[s4r](C)p.[s4r](U)p.r(T)p.r(T)}|RNA2{r(C)p.r(A)p.r(G)p.r(C)p.r(A)p.r(U)p.r(U)p.r(U)p.r(U)p.r(C)p.r(U)p.r(G)p.r(C)p.r(A)p.r(U)p.r(G)p.r(U)p.[s4r](U)p.[s4r](U)p.r(T)p.r(T)}$$$RNA1{StrandType:ss}|RNA2{StrandType:as}$”, the figure is 87.7%.
For “RNA1{r(C)p.r(U)p.r(U)p.r(A)p.r(C)p.r(G)p.r(C)p.r(U)p.r(G)p.r(A)p.r(G)p.r(U)p.r(A)p.r(C)p.r(U)p.r(U)p.r(C)p.r(G)p.r(A)p.r(T)p.r(T)}|RNA2{r(U)p.r(C)p.r(G)p.r(A)p.r(A)p.r(G)p.r(U)p.r(A)p.r(C)p.r(U)p.r(C)p.r(A)p.[lna](G)p.r(C)p.r(G)p.r(U)p.r(A)p.r(A)p.r(G)p.r(T)p.r(T)}$$$RNA1{StrandType:ss}|RNA2{StrandType:as}$”, the target mRNA knockdown is 65%.
As for “RNA1{r(G)p.r(U)p.r(A)p.r(U)p.r(G)p.r(A)p.r(C)p.r(C)p.r(G)p.r(A)p.r(C)p.r(U)p.r(A)p.r(C)p.r(G)p.r(C)p.r(G)p.r(U)p.r(A)p.r(T)p.r(T)}|RNA2{r(U)p.r(U)p.r(C)p.r(A)p.r(G)p.r(U)p.r(G)p.r(U)p.r(G)p.r(A)p.[una](U)p.r(G)p.r(A)p.r(C)p.r(A)p.r(C)p.r(U)p.r(U)p.r(G)p.r(T)p.r(T)}$$$RNA1{StrandType:ss}|RNA2{StrandType:as}$”, the figure is 0%; as for “RNA1{[lna](T)p.r(G)p.[lna](A)p.r(G)p.[lna](A)p.r(G)p.r(A)p.r(A)p.[lna](A)p.r(G)p.r(C)p.[lna](A)p.r(C)p.[lna](A)p.r(G)p.r(A)p.[lna](A)p.r(A)p.r(A)p.[lna](T)p.[lna](T)}|RNA2{r(U)p.r(U)p.r(U)p.r(U)p.r(C)p.r(U)p.r(G)p.r(U)p.r(G)p.r(C)p.r(U)p.r(U)p.r(U)p.r(C)p.r(U)p.r(C)p.r(U)p.r(C)p.r(A)p.r(T)p.r(T)}$$$RNA1{StrandType:ss}|RNA2{StrandType:as}$”, 68%; as for “RNA1{r(A)p.r(G)p.r(C)p.r(G)p.r(A)p.r(U)p.r(C)p.r(C)p.r(C)p.m(G)p.r(A)p.r(A)p.m(C)p.r(A)p.r(A)p.r(G)p.m(U)p.r(A)p.r(U)p.r(T)p.r(T)}|RNA2{r(A)p.m(U)p.r(A)p.r(C)p.r(U)p.m(U)p.r(G)p.r(U)p.r(U)p.r(C)p.r(G)p.r(G)p.r(G)p.r(A)p.r(U)p.r(C)p.r(G)p.r(C)p.r(U)p.r(T)p.r(T)}$$$RNA1{StrandType:ss}|RNA2{StrandType:as}$”, 84%.
Turning to “RNA1{[s4r](A)p.[s4r](A)p.r(A)p.r(C)p.r(A)p.r(U)p.r(G)p.r(C)p.r(A)p.r(G)p.r(A)p.r(A)p.r(A)p.r(A)p.r(U)p.r(G)p.r(C)p.r(U)p.r(G)p.r(T)p.r(T)}|RNA2{r(C)p.r(A)p.r(G)p.r(C)p.r(A)p.r(U)p.r(U)p.r(U)p.r(U)p.r(C)p.r(U)p.r(G)p.r(C)p.r(A)p.r(U)p.r(G)p.r(U)p.r(U)p.r(U)p.r(T)p.r(T)}$$$RNA1{StrandType:ss}|RNA2{StrandType:as}$”, the target mRNA knockdown came to 69.5%.
As for “RNA1{m(C)p.r(C)p.m(U)p.r(C)p.m(G)p.r(G)p.m(A)p.r(G)p.m(A)p.r(G)p.m(U)p.r(U)p.m(C)p.r(U)p.m(A)p.r(C)p.m(U)p.r(C)p.r(U)p.r(T)p.r(T)}|RNA2{r(A)p.r(G)p.r(A)p.r(G)p.r(U)p.r(A)p.r(G)p.r(A)p.r(A)p.r(C)p.r(U)p.r(C)p.r(U)p.r(C)p.r(C)p.r(G)p.r(A)p.r(G)p.r(G)p.r(T)p.r(T)}$$$RNA1{StrandType:ss}|RNA2{StrandType:as}$”, the figure is 34%; as for “RNA1{m(A)p.r(G)p.m(A)p.r(A)p.m(A)p.r(A)p.m(G)p.r(C)p.m(A)p.r(G)p.m(C)p.r(G)p.m(A)p.r(U)p.m(A)p.r(C)p.m(G)p.r(C)p.m(U)p.r(T)p.r(T)}|RNA2{r(A)p.r(G)p.r(C)p.r(G)p.r(U)p.r(A)p.r(U)p.r(C)p.r(G)p.r(C)p.r(U)p.r(G)p.r(C)p.r(U)p.r(U)p.r(U)p.r(U)p.r(C)p.r(U)p.r(T)p.r(T)}$$$RNA1{StrandType:ss}|RNA2{StrandType:as}$”, 34%; as for “RNA1{r(U)p.r(C)p.r(G)p.r(G)p.r(G)p.r(A)p.r(A)p.r(A)p.r(U)p.r(U)p.r(U)p.r(C)p.r(U)p.r(C)p.r(U)p.r(A)p.r(U)p.r(U)p.r(A)p.d(T)p.d(T)}|RNA2{r(U)p.r(A)p.r(A)p.r(U)p.r(A)p.r(G)p.r(A)p.r(G)p.r(A)p.r(A)p.r(A)p.r(U)p.r(U)p.r(U)p.r(C)p.r(C)p.r(C)p.r(G)p.r(A)p.d(T)p.d(T)}$$$RNA1{StrandType:ss}|RNA2{StrandType:as}$”, 94% and 80%.
Take “RNA1{r(C)p.r(G)p.r(U)p.r(A)p.r(C)p.r(G)p.r(C)p.r(G)p.r(G)p.r(A)p.r(A)p.r(U)p.r(A)p.r(C)p.r(U)p.r(U)p.r(C)p.r(G)p.r(A)p.r(T)p.r(T)}|RNA2{r(U)p.r(C)p.r(G)p.r(A)p.r(A)p.r(G)p.r(U)p.r(A)p.r(U)p.r(U)p.r(C)p.r(C)p.r(G)p.m(C)p.m(G)p.m(U)p.m(A)p.m(C)p.m(G)p.r(T)p.r(T)}$$$RNA1{StrandType:ss}|RNA2{StrandType:as}$”: the target mRNA knockdown came to 30.8%.
